# The source made the active and inactive calls. The rule behind the calls is not given here.
# Legend:
# [1] = Upregulation of BMP-2 expression in mouse MC3T3-E1 cells at 4 uM after 24 hrs by luciferase reporter gene assay relative to control; assay type: functional, cell-based
# Rattus norvegicus [2] = assay: Toxicity in glucocorticoid-induced Wistar rat osteoporosis model assessed as white blood cells at 30 mg/kg/day, po administered six times a week for 3 months (reference value: 6.28 +/- 2.78 x 10^9/L); assay type: organism-based; parameters: route oral; conditions: in vivo
# Rattus norvegicus [3] = assay: Toxicity in glucocorticoid-induced Wistar rat osteoporosis model assessed as lymph level at 30 mg/kg/day, po administered six times a week for 3 months (reference value: 50.35 +/- 12.96%); assay type: organism-based; parameters: route oral; conditions: in vivo
# Rattus norvegicus [4] = assay: Toxicity in glucocorticoid-induced Wistar rat osteoporosis model assessed as neutrophilic granulocytes level at 30 mg/kg/day, po administered six times a week for 3 months (reference value: 31.95 +/- 8.33%); assay type: organism-based; parameters: route oral; conditions: in vivo
# Rattus norvegicus [5] = assay: Toxicity in glucocorticoid-induced Wistar rat osteoporosis model assessed as effect on red blood cells at 30 mg/kg/day, po administered six times a week for 3 months; assay type: organism-based; parameters: route oral; conditions: in vivo
# Rattus norvegicus [6] = assay: Toxicity in glucocorticoid-induced Wistar rat osteoporosis model assessed as effect on hemoglobin at 30 mg/kg/day, po administered six times a week for 3 months; assay type: organism-based; parameters: route oral; conditions: in vivo
# Rattus norvegicus [7] = assay: Toxicity in glucocorticoid-induced Wistar rat osteoporosis model assessed as effect on red blood cell specific volume at 30 mg/kg/day, po administered six times a week for 3 months; assay type: organism-based; parameters: route oral; conditions: in vivo
# Rattus norvegicus [8] = assay: Toxicity in glucocorticoid-induced Wistar rat osteoporosis model assessed as effect on mean corpuscular volume at 30 mg/kg/day, po administered six times a week for 3 months; assay type: organism-based; parameters: route oral; conditions: in vivo
# Rattus norvegicus [9] = assay: Toxicity in glucocorticoid-induced Wistar rat osteoporosis model assessed as effect on mean corpuscular hemoglobin concentration at 30 mg/kg/day, po administered six times a week for 3 months; assay type: organism-based; parameters: route oral; conditions: in vivo
# Rattus norvegicus [10] = assay: Toxicity in glucocorticoid-induced Wistar rat osteoporosis model assessed as effect on red blood cell distribution width at 30 mg/kg/day, po administered six times a week for 3 months; assay type: organism-based; parameters: route oral; conditions: in vivo
# Rattus norvegicus [11] = assay: Toxicity in glucocorticoid-induced Wistar rat osteoporosis model assessed as effect on platelets at 30 mg/kg/day, po administered six times a week for 3 months; assay type: organism-based; parameters: route oral; conditions: in vivo
# Rattus norvegicus [12] = assay: Toxicity in glucocorticoid-induced Wistar rat osteoporosis model assessed as aspartate transaminase level at 30 mg/kg/day, po administered six times a week for 3 months (reference value: 177.55 +/- 116.98 U/L); assay type: organism-based; parameters: route oral; conditions: in vivo
# Rattus norvegicus [13] = assay: Toxicity in glucocorticoid-induced Wistar rat osteoporosis model assessed as alanine transaminase level at 30 mg/kg/day, po administered six times a week for 3 months (reference value: 43.73 +/- 36.21 U/L); assay type: organism-based; parameters: route oral; conditions: in vivo
# Rattus norvegicus [14] = assay: Toxicity in glucocorticoid-induced Wistar rat osteoporosis model assessed as triglycerides level at 30 mg/kg/day, po administered six times a week for 3 months (reference value: 1.13 +/- 0.69 mmol/L); assay type: organism-based; parameters: route oral; conditions: in vivo
# Rattus norvegicus [15] = assay: Toxicity in glucocorticoid-induced Wistar rat osteoporosis model assessed as effect on total bilirubin level at 30 mg/kg/day, po administered six times a week for 3 months; assay type: organism-based; parameters: route oral; conditions: in vivo
# Rattus norvegicus [16] = assay: Toxicity in glucocorticoid-induced Wistar rat osteoporosis model assessed as effect on total protein level at 30 mg/kg/day, po administered six times a week for 3 months; assay type: organism-based; parameters: route oral; conditions: in vivo
# Rattus norvegicus [17] = assay: Toxicity in glucocorticoid-induced Wistar rat osteoporosis model assessed as effect on albumin level at 30 mg/kg/day, po administered six times a week for 3 months; assay type: organism-based; parameters: route oral; conditions: in vivo
# Rattus norvegicus [18] = assay: Toxicity in glucocorticoid-induced Wistar rat osteoporosis model assessed as effect on blood urea nitrogen level at 30 mg/kg/day, po administered six times a week for 3 months; assay type: organism-based; parameters: route oral; conditions: in vivo
# Rattus norvegicus [19] = assay: Toxicity in glucocorticoid-induced Wistar rat osteoporosis model assessed as effect on creatinine level at 30 mg/kg/day, po administered six times a week for 3 months; assay type: organism-based; parameters: route oral; conditions: in vivo
# Rattus norvegicus [20] = assay: Toxicity in glucocorticoid-induced Wistar rat osteoporosis model assessed as effect on glucose level at 30 mg/kg/day, po administered six times a week for 3 months; assay type: organism-based; parameters: route oral; conditions: in vivo
# [21] = Acute toxicity in po dosed Kunming mouse administered for 3 days measured during compound dosing and following 14 days; assay type: organism-based; conditions: in vivo
# Rattus norvegicus [22] = assay: Antiosteoporotic activity in glucocorticoid-induced Wistar rat osteoporosis model assessed as increase in trabecula number at 30 mg/kg/day, po administered six times a week for 3 months by toluidine blue staining-based light microscopic analysis relative to dexamethasone; assay type: functional, organism-based
# Rattus norvegicus [23] = assay: Antiosteoporotic activity in glucocorticoid-induced Wistar rat osteoporosis model assessed as increase in trabecula thickness at 30 mg/kg/day, po administered six times a week for 3 months by toluidine blue staining-based light microscopic analysis relative to dexamethasone; assay type: functional, organism-based
# Rattus norvegicus [24] = assay: Antiosteoporotic activity in glucocorticoid-induced Wistar rat osteoporosis model assessed as increase in trabecula area at 30 mg/kg/day, po administered six times a week for 3 months by toluidine blue staining-based light microscopic analysis relative to dexamethasone; assay type: functional, organism-based
# Rattus norvegicus [25] = assay: Antiosteoporotic activity in glucocorticoid-induced Wistar rat osteoporosis model assessed as increase in trabecula connectivity at 30 mg/kg/day, po administered six times a week for 3 months by toluidine blue staining-based light microscopic analysis relative to dexamethasone; assay type: functional, organism-based
# Rattus norvegicus [26] = assay: Antiosteoporotic activity in glucocorticoid-induced Wistar rat osteoporosis model assessed as trabecular bone volume at 30 mg/kg/day, po administered six times a week for 3 months by fluorescence assay (reference value: 33.09 +/- 5.15%); assay type: functional, Trabecula
# Rattus norvegicus [27] = assay: Antiosteoporotic activity in glucocorticoid-induced Wistar rat osteoporosis model assessed as trabecula formation surface at 30 mg/kg/day, po administered six times a week for 3 months by fluorescence assay (reference value: 7.82 +/- 2.46%); assay type: functional
# Rattus norvegicus [28] = assay: Antiosteoporotic activity in glucocorticoid-induced Wistar rat osteoporosis model assessed as trabecula resorption surface at 30 mg/kg/day, po administered six times a week for 3 months by fluorescence assay (reference value: 7.22 +/- 2.04%); assay type: functional
# Rattus norvegicus [29] = assay: Antiosteoporotic activity in glucocorticoid-induced Wistar rat osteoporosis model assessed as mineral apposition rate at 30 mg/kg/day, po administered six times a week for 3 months by fluorescence assay (reference value: 1.06 +/- 0.27 micrometer/day); assay type: functional
# Mus musculus [30] = assay: Acute toxicity in Kunming mouse assessed as behavioral changes at 500 mg/kg, po administered for 3 days measured during compound dosing and following 14 days; assay type: organism-based; parameters: dose 500 mg/kg, route oral; conditions: in vivo, 336 h
# Mus musculus [31] = assay: Acute toxicity in Kunming mouse assessed as shiny fur at 500 mg/kg, po administered for 3 days measured during compound dosing and following 14 days; assay type: organism-based; parameters: dose 500 mg/kg, route oral; conditions: in vivo, 336 h
# Rattus norvegicus [32] = assay: Antiosteoporotic activity in glucocorticoid-induced Wistar rat osteoporosis model assessed as densed trabecula at 30 mg/kg/day, po administered six times a week for 3 months by toluidine blue staining-based light microscopic analysis relative to dexamethasone; assay type: functional, organism-based
Structure (SMILES),Activity [1],Activity (Rattus norvegicus [2]),Activity (Rattus norvegicus [3]),Activity (Rattus norvegicus [4]),Activity (Rattus norvegicus [5]),Activity (Rattus norvegicus [6]),Activity (Rattus norvegicus [7]),Activity (Rattus norvegicus [8]),Activity (Rattus norvegicus [9]),Activity (Rattus norvegicus [10]),Activity (Rattus norvegicus [11]),Activity (Rattus norvegicus [12]),Activity (Rattus norvegicus [13]),Activity (Rattus norvegicus [14]),Activity (Rattus norvegicus [15]),Activity (Rattus norvegicus [16]),Activity (Rattus norvegicus [17]),Activity (Rattus norvegicus [18]),Activity (Rattus norvegicus [19]),Activity (Rattus norvegicus [20]),also measured
CCOC(=O)c1cc2ccc(N(CC)CC)cc2o1,44.6%,–,–,–,–,–,–,–,–,–,–,–,–,–,–,–,–,–,–,–,–
CCOC(=O)c1ccc2cc(C(=O)/C=C/c3ccc(OC)c(OC)c3)sc2c1,0.7%,–,–,–,–,–,–,–,–,–,–,–,–,–,–,–,–,–,–,–,–
CCOC(=O)c1cc2ccc(OC)cc2o1,89.4%,2.83 ×10⁹ /L,46.18%,38.96%,Non-toxic,Non-toxic,Non-toxic,Non-toxic,Non-toxic,Non-toxic,Non-toxic,110.08 U/L,27.67 U/L,0.38 mmol/L,Non-toxic,Non-toxic,Non-toxic,Non-toxic,Non-toxic,Non-toxic,LD50 at 336 h [21]: > 500 mg/kg; Activity (Rattus norvegicus [22]): Active; Activity (Rattus norvegicus [23]): Active; Activity (Rattus norvegicus [24]): Active; Activity (Rattus norvegicus [25]): Active; Activity (Rattus norvegicus [26]): 30.8%; Activity (Rattus norvegicus [27]): 7.13%; Activity (Rattus norvegicus [28]): 8.23%; Activity (Rattus norvegicus [29]): 1.29 micrometer/day; Activity (Mus musculus [30]): Non-toxic; Activity (Mus musculus [31]): Non-toxic
CC(=O)c1cc2cc(C(=O)O)ccc2s1,93.2%,3.31 ×10⁹ /L,36.73%,47.71%,Non-toxic,Non-toxic,Non-toxic,Non-toxic,Non-toxic,Non-toxic,Non-toxic,103.17 U/L,26.67 U/L,0.62 mmol/L,Non-toxic,Non-toxic,Non-toxic,Non-toxic,Non-toxic,Non-toxic,LD50 at 336 h [21]: > 500 mg/kg; Activity (Rattus norvegicus [32]): Active; Activity (Rattus norvegicus [26]): 23.13%; Activity (Rattus norvegicus [27]): 5.03%; Activity (Rattus norvegicus [28]): 10.3%; Activity (Rattus norvegicus [29]): 1.03 micrometer/day; Activity (Mus musculus [30]): Non-toxic; Activity (Mus musculus [31]): Non-toxic
CCOC(=O)c1ccc2cc(C(=O)/C=C/c3ccccc3)sc2c1,85.9%,2.83 ×10⁹ /L,43.43%,41.98%,Non-toxic,Non-toxic,Non-toxic,Non-toxic,Non-toxic,Non-toxic,Non-toxic,103.08 U/L,27 U/L,0.29 mmol/L,Non-toxic,Non-toxic,Non-toxic,Non-toxic,Non-toxic,Non-toxic,LD50 at 336 h [21]: > 500 mg/kg; Activity (Rattus norvegicus [22]): Active; Activity (Rattus norvegicus [23]): Active; Activity (Rattus norvegicus [24]): Active; Activity (Rattus norvegicus [25]): Active; Activity (Rattus norvegicus [26]): 25.2%; Activity (Rattus norvegicus [27]): 6.98%; Activity (Rattus norvegicus [28]): 8.58%; Activity (Rattus norvegicus [29]): 1.26 micrometer/day; Activity (Mus musculus [30]): Non-toxic; Activity (Mus musculus [31]): Non-toxic
CC(=O)c1cc2ccccc2s1,–,3.12 ×10⁹ /L,39.85%,43.25%,Non-toxic,Non-toxic,Non-toxic,Non-toxic,Non-toxic,Non-toxic,Non-toxic,129.83 U/L,35.25 U/L,0.46 mmol/L,Non-toxic,Non-toxic,Non-toxic,Non-toxic,Non-toxic,Non-toxic,Activity (Rattus norvegicus [22]): Active; Activity (Rattus norvegicus [23]): Active; Activity (Rattus norvegicus [24]): Active; Activity (Rattus norvegicus [25]): Active; Activity (Rattus norvegicus [26]): 31.57%; Activity (Rattus norvegicus [27]): 7.36%; Activity (Rattus norvegicus [28]): 8.36%; Activity (Rattus norvegicus [29]): 1.24 micrometer/day
COC(=O)c1ccc2cc(C(C)O)sc2c1 (centres undefined),81.4%,–,–,–,–,–,–,–,–,–,–,–,–,–,–,–,–,–,–,–,–
CCN(CC)c1ccc2cc(C(=O)C[S+](C)[O-])oc2c1 (centres undefined),10%,–,–,–,–,–,–,–,–,–,–,–,–,–,–,–,–,–,–,–,–
COc1ccc2oc(C(O)C[S+](C)[O-])cc2c1 (centres undefined),16.9%,–,–,–,–,–,–,–,–,–,–,–,–,–,–,–,–,–,–,–,–
COC(=O)c1ccc2sc(C(C)O)cc2c1 (centres undefined),56.9%,–,–,–,–,–,–,–,–,–,–,–,–,–,–,–,–,–,–,–,–
CCOC(=O)c1cc2c(OC)cccc2o1,60%,–,–,–,–,–,–,–,–,–,–,–,–,–,–,–,–,–,–,–,–
